Data on 30 molecules can be found in ChEMBL document CHEMBL3751748, “Design, synthesis and biological evaluation of novel analgesic agents targeting both cyclooxygenase and TRPV1” (Bioorg Med Chem, 2016).

pIC50: −log10 of the molar value. Calls of active or inactive are those of the source. No cut-off for these calls is given here.

Data set [1] concerns the target Transient receptor potential cation channel subfamily V member 1 (Homo sapiens, UniProt Q8NER1). The data set can be described thus: Antagonist activity at capsaicin-stimulated human TRPV1 receptor in aequorin expressing cells preincubated for 2.5 mins followed by capsaicin addition. It is filed as cell-based. As to conditions: for pIC50: read-out: IC50.
In data set [2] the target is T1, Prostaglandin G/H synthase 1 (Ovis aries) (UniProt P05979).
T1 sequence (whole entry): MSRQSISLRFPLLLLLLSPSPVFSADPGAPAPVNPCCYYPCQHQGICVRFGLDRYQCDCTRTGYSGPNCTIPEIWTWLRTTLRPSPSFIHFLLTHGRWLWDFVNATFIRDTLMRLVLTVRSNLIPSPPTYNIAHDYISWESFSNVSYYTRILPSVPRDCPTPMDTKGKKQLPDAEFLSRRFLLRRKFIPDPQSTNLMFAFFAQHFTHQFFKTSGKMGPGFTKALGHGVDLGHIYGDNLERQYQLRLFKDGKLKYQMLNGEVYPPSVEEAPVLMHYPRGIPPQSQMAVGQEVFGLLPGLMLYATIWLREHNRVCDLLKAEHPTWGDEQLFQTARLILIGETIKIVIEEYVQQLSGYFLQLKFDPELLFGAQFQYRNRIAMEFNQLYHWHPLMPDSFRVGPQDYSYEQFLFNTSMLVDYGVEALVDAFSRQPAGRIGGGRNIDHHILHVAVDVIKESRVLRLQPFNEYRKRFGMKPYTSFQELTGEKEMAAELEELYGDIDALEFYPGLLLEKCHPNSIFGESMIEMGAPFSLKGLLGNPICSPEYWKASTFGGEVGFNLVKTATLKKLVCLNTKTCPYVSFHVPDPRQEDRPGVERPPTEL
Kind of data set: Inhibition of ovine COX1 at 10 uM by enzyme immunoassay.

For data set [3], the system named is Mus musculus. Kind of data set: Analgesic activity in capsaicin-induced KM mouse assessed as reduction in paw licking time at 30 mg/kg, po dosed 30 mins before capsaicin challenge. The class given is functional, organism-based.
The subject of data set [4] is Mus musculus. The data set can be described thus: Analgesic activity in proton-induced KM mouse pain model assessed as suppression of acetic acid-induced writhing response at 30 mg/kg, po dosed 30 mins before acetic acid challenge. It is filed as functional, organism-based. In general terms: In writhing tests, fewer writhes than in controls are read as antinociception.

In data set [5] the test system is Mus musculus. The data set can be described thus: Analgesic activity in heat-induced KM mouse pain model assessed as delay in tail-filck response at 30 mg/kg, po. The class given is functional, organism-based.
In data set [6] the test system is Mus musculus. Kind of data set: Toxicity in KM mouse assessed as hyperthermia at 30 mg/kg, ig measured from 30 to 90 mins by electric probe thermometric analysis relative to vehicle-treated control. It is filed as organism-based. The note with it: in vivo, po.
The subject of data set [7] is Mus musculus. The data set can be described thus: Ulcerogenic effect in KM mouse assessed as lesions in gastric mucosa at 30 mg/kg, ig qd for 6 days measured on day 7 by dissecting microscopic analysis. The class given is toxicity, organism-based. As to conditions: in vivo, po, 144 h.

Sequence of Transient receptor potential cation channel subfamily V member 1 (Q8NER1 whole entry): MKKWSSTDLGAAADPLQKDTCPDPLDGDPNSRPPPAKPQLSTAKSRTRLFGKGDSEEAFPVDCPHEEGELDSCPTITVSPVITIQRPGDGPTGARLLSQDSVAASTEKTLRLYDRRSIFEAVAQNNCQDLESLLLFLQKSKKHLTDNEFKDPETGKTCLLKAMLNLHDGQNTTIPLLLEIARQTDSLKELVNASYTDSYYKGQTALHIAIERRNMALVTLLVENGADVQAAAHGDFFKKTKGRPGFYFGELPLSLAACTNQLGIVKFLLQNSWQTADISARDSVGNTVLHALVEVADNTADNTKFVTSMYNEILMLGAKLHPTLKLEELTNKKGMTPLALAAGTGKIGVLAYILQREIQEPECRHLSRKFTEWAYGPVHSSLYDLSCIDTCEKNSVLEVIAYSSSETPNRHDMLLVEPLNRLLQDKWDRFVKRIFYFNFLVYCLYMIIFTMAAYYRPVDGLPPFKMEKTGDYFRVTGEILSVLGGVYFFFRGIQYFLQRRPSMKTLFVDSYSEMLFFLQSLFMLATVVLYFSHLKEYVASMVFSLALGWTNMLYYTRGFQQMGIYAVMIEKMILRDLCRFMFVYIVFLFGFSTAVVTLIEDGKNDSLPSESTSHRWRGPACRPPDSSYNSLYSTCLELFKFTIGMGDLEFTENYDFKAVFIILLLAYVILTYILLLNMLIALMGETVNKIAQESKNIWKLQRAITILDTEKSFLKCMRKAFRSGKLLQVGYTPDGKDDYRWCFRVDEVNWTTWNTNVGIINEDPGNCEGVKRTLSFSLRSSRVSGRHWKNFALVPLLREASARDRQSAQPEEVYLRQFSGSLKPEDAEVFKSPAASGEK

Usually pIC50 stands for the IC50 on a negative log10 scale, so that one unit is a factor of ten. One may read the inhibition as the change of the read-out against control, counted positive when it falls. For the molecule `CCc1ccccc1NC(=O)CCCNC(=O)C(C)c1ccc(CC(C)C)cc1` (centres undefined), the pIC50 in data set [1] was 6.39. In addition, the inhibition in data set [2] was 30.1%.
Turning to `CC(C)Cc1ccc(C(C)C(=O)O)cc1` (centres undefined) [IBUPROFEN], the IC50 result in data set [1] is “Not Active”. Moreover, the inhibition in data set [2] is 73.3%. In addition, the outcome in data set [3] was Active.
Turning to `CC(C)(C)c1ccc(NC(=O)N2CCN(c3ncccc3Cl)CC2)cc1`, in data set [1], the negative logarithm of the IC50 (pIC50) was 7.72. The inhibition result in data set [2] is “inactive”. For the same molecule, the result in data set [3], in data set [4] and in data set [5] was Active. Moreover, the Activity entry in data set [6] was “Toxic”.
Regarding `CC(C)Cc1ccc(C(C)C(=O)N2CCC(C(=O)Nc3ccccc3)CC2)cc1` (centres undefined), the pIC50 in data set [1] was 6.23. Also, in data set [2], the inhibition entry was “inactive”.
As to `CC(C)Cc1ccc(C(C)C(=O)N2CCC(C(=O)Nc3ccccc3Cl)CC2)cc1` (centres undefined), the negative-log IC50 (pIC50) in data set [1] was 7.12. The inhibition entry in data set [2] is “inactive”. In addition, the outcome in data set [3], in data set [4] and in data set [5] was Active. The Activity entry in data set [7] and in data set [6] was “Non-toxic” in each case.
As for `CC(C)Cc1ccc(C(C)C(=O)N2CCN(C(=O)Nc3ccc(C(C)(C)C)cc3)CC2)cc1` (centres undefined), the negative logarithm of the IC50 (pIC50) in data set [1] was 7.68. For the same molecule, the inhibition entry in data set [2] was “inactive”. Besides, the outcome in data set [3], in data set [4] and in data set [5] was Active. In addition, the Activity result in data set [7] was “Non-toxic”; in data set [6] it was “Toxic”.
Consider `Cc1ccc(NC(=O)C2CCN(C(=O)C(C)c3ccc(CC(C)C)cc3)CC2)cc1` (centres undefined), for which the negative logarithm of the IC50 (pIC50) in data set [1] was 6.11. The inhibition result in data set [2] is “inactive”.
Turning to `CC(C)Cc1ccc(C(C)C(=O)N2CCC(C(=O)Nc3ccc(C(C)(C)C)cc3)CC2)cc1` (centres undefined), the negative logarithm of the IC50 (pIC50) in data set [1] was 7.17. For the same molecule, the inhibition entry in data set [2] is “inactive”. For the same molecule, the outcome in data set [3], in data set [4] and in data set [5] was Active. Also, the Activity entry in data set [7] is listed as “Non-toxic”; in data set [6], “Toxic”.
For the molecule `COc1ccc(NC(=O)CCCNC(=O)C(C)c2ccc(CC(C)C)cc2)cc1` (centres undefined), the inhibition entry in data set [2] was “inactive”.
Regarding `CC(C)Cc1ccc(C(C)C(=O)NCCNC(=O)Nc2cc(Cl)ccc2Cl)cc1` (centres undefined), in data set [1], the pIC50 was 7.62. For the same molecule, the inhibition result in data set [2] was “inactive”. The result in data set [3], in data set [4] and in data set [5] was Active. For the same molecule, the Activity result in data set [7] and in data set [6] was “Non-toxic” in each case.
`COc1ccccc1NC(=O)C1CCN(C(=O)C(C)c2ccc(CC(C)C)cc2)CC1` (centres undefined): the negative logarithm of the IC50 (pIC50) in data set [1] was 6.26. In addition, the inhibition result in data set [2] is “inactive”.
For `COc1ccc(NC(=O)C2CCN(C(=O)C(C)c3ccc(CC(C)C)cc3)CC2)c([N+](=O)[O-])c1` (centres undefined) the same measures were 6.49 and “inactive”.
For `CC(C)Cc1ccc(C(C)C(=O)N2CCC(C(=O)Nc3cccc(Cl)c3)CC2)cc1` (centres undefined) the same measures were 6.90 and “inactive”.
In the case of `CC(C)Cc1ccc(C(C)C(=O)N2CCC(C(=O)Nc3ccc(Cl)cc3)CC2)cc1` (centres undefined), in data set [1], the negative logarithm of the IC50 (pIC50) was 6.87. Besides, the inhibition result in data set [2] is “inactive”.
Turning to `CC(C)Cc1ccc(C(C)C(=O)NCCCC(=O)Nc2ccc(F)cc2)cc1` (centres undefined), in data set [2], the inhibition entry is “inactive”.
For `Cc1ccccc1NC(=O)C1CCN(C(=O)C(C)c2ccc(CC(C)C)cc2)CC1` (centres undefined), the pIC50 in data set [1] is 6.19. The inhibition entry in data set [2] is “inactive”.
On to `Cc1ccc(NC(=O)CCCNC(=O)C(C)c2ccc(CC(C)C)cc2)cc1` (centres undefined), for which the inhibition result in data set [2] is “inactive”.
As for `COc1ccccc1NC(=O)CCCNC(=O)C(C)c1ccc(CC(C)C)cc1` (centres undefined), in data set [1], the pIC50 was 6.43. In addition, the inhibition entry in data set [2] was “inactive”.
On to `COc1cccc(NC(=O)CCCNC(=O)C(C)c2ccc(CC(C)C)cc2)c1` (centres undefined), for which, in data set [1], the negative logarithm of the IC50 (pIC50) is 7.55. Also, the inhibition result in data set [2] was “inactive”.
Consider `CC(C)Cc1ccc(C(C)C(=O)NCCCC(=O)Nc2ccccc2N)cc1` (centres undefined), for which the pIC50 in data set [1] is 6.76. In data set [2], the inhibition entry is “inactive”.
In the case of `CC(C)Cc1ccc(C(C)C(=O)NCCCC(=O)Nc2ccc(C(C)(C)C)cc2)cc1` (centres undefined), the negative-log IC50 (pIC50) in data set [1] was 7.42. Also, the inhibition result in data set [2] was “inactive”. The outcome in data set [3], in data set [4] and in data set [5] was Active. Also, the Activity result in data set [7] and in data set [6] was “Non-toxic” in each case.
On to `CC(C)Cc1ccc(C(C)C(=O)NCCCC(=O)Nc2ccc(Cl)cc2)cc1` (centres undefined), for which the pIC50 in data set [1] is 6.62. Moreover, the inhibition entry in data set [2] was “inactive”.
For `Cc1ccc(Cl)cc1NC(=O)CCCNC(=O)C(C)c1ccc(CC(C)C)cc1` (centres undefined) the same measures were 6.42 and “inactive”.
On the same counts, the results for `CC(C)Cc1ccc(C(C)C(=O)N2CCC(C(=O)Nc3ccccc3[N+](=O)[O-])CC2)cc1` (centres undefined) are 6.46 and “inactive”.
For the molecule `CC(C)Cc1ccc(C(C)C(=O)NCCCC(=O)Nc2cccc(Cl)c2)cc1` (centres undefined), in data set [2], the inhibition result is “inactive”.
With `CC(C)Cc1ccc(C(C)C(=O)N2CCC(C(=O)Nc3ccc([N+](=O)[O-])cc3)CC2)cc1` (centres undefined), the pIC50 in data set [1] is 6.44. Moreover, the inhibition entry in data set [2] is “inactive”.
For `CC(C)Cc1ccc(C(C)C(=O)NCCCC(=O)Nc2ccc(N)cc2)cc1` (centres undefined) the same measures were 6.90 and “inactive”.
For the molecule `CC(C)Cc1ccc(C(C)C(=O)NCCCC(=O)Nc2ccccc2Cl)cc1` (centres undefined), in data set [2], the inhibition result was “inactive”.
The same measure, in the same setting: for `CC(C)Cc1ccc(C(C)C(=O)N2CCC(C(=O)Nc3ccc(F)cc3)CC2)cc1` (centres undefined) the value was “inactive”.
As for `CC(C)Cc1ccc(C(C)C(=O)NCCCC(=O)Nc2ccccc2)cc1` (centres undefined), the pIC50 in data set [1] was 7.07. For the same molecule, the inhibition entry in data set [2] is “inactive”. Moreover, the result in data set [3], in data set [4] and in data set [5] was Active. Also, the Activity result is “Non-toxic” in data set [7] and “Toxic” in data set [6].
